In ChEMBL document CHEMBL3045008, “Toxicity, inheritance of fenpyroximate resistance, and detoxification-enzyme levels in a laboratory-selected fenpyroximate-resistant strain of Tetranychus urticae Koch (Acari: Tetranychidae)” (2011):

How the values were obtained:
Assay type in all cases: functional
Tetranychus urticae [1] = assay: Insecticidal activity against Tetranychus urticae FPY 14 (two-spotted spider mite) assessed as mortality at 26 +/- 2 degC with 60 +/- 5% RH for first 24 hr
Tetranychus urticae [2] = assay: Resistant ratio, LC50 for Tetranychus urticae FPY 14 (two-spotted spider mite) to LC50 for Tetranychus urticae GSS
Tetranychus urticae [3] = assay: Insecticidal activity against Tetranychus urticae GSS (two-spotted spider mite) assessed as mortality at 26 +/- 2 degC with 60 +/- 5% RH for first 24 hr

Structure (SMILES) | LC50 (Tetranychus urticae [1]) | RatioLC50 (Tetranychus urticae [2]) | LC50 (Tetranychus urticae [3]) | LC60 (Tetranychus urticae [1]) | LC90 (Tetranychus urticae [1]) | LC60 (Tetranychus urticae [3]) | LC90 (Tetranychus urticae [3])
Cc1c(COC(=O)[C@@H]2[C@H](/C=C(\Cl)C(F)(F)F)C2(C)C)cccc1-c1ccccc1 (relative stereo) [BIFENTHRIN] | 12.77 mgAi/L | <1 | 54.53 mgAi/L | – | – | – | –
CC[C@H](C)[C@H]1O[C@]2(C=C[C@@H]1C)C[C@@H]1C[C@@H](C/C=C(\C)[C@@H](O[C@H]3C[C@H](OC)[C@@H](O[C@H]4C[C@H](OC)[C@@H](O)[C@H](C)O4)[C@H](C)O3)[C@@H](C)/C=C/C=C3\CO[C@@H]4[C@H](O)C(C)=C[C@@H](C(=O)O1)[C@]34O)O2.CO[C@H]1C[C@H](O[C@H]2[C@H](C)O[C@@H](O[C@@H]3/C(C)=C/C[C@@H]4C[C@@H](C[C@]5(C=C[C@H](C)[C@@H](C(C)C)O5)O4)OC(=O)[C@@H]4C=C(C)[C@@H](O)[C@H]5OC/C(=C\C=C\[C@@H]3C)[C@]54O)C[C@@H]2OC)O[C@@H](C)[C@@H]1O [ABAMECTIN] | 1.56 mgAi/L | 7.8 | 0.2 mgAi/L | – | – | – | –
Cc1ccc(/N=C/N(C)/C=N/c2ccc(C)cc2C)c(C)c1 [AMITRAZ] | 167.13 mgAi/L | 2.78 | 60.07 mgAi/L | – | – | – | –
CCOP(=S)(OCC)Oc1nc(Cl)c(Cl)cc1Cl [CHLORPYRIFOS] | 85.84 mgAi/L | 6.9 | 12.44 mgAi/L | – | – | – | –
Clc1ccccc1-c1nnc(-c2ccccc2Cl)nn1 [CLOFENTEZINE] | 68.52 mgAi/L | 4.78 | 14.32 mgAi/L | – | – | – | –
Cc1nn(C)c(Oc2ccccc2)c1/C=N/OCc1ccc(C(=O)OC(C)(C)C)cc1 [FENPYROXYMATE] | – | – | – | 319.1 mgAi/L | 1637.86 mgAi/L | 5.1 mgAi/L | 29.5 mgAi/L
C#CCOS(=O)OC1CCCCC1Oc1ccc(C(C)(C)C)cc1 (configuration not stated) [PROPARGITE] | 482.52 mgAi/L | 6.43 | 75 mgAi/L | – | – | – | –
